# Legend:
# CBR = assay: In vitro CBR binding, displacement of [3H]flunitrazepam; set-up: species or system rat; conditions: for Ki: displacement of [3H]flunitrazepam from rat cerebrocortical samples, mean of three experiments in duplicate
# Procedure: Binding affinity and selectivity to the 18-kDa translocator protein TSPO and to CBR were assessed using in vitro receptor binding assays. These experiments were carried out as described by Denora et al[34].
# TSPO [1] = molecular target: T1, TSPO (Rattus norvegicus, UniProt P16257); conditions: ratio of Ki values, higher affinity of CB251
# T1 sequence (P16257 whole entry): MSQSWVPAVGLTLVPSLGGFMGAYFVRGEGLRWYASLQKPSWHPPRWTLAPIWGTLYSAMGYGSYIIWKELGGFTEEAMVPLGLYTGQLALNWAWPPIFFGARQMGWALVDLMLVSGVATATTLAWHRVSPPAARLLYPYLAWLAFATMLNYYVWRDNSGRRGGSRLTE
# TSPO [2] = molecular target: T1, TSPO; assay: biochemical
# TSPO [3] = molecular target: TSPO; set-up: method as in PMID 19948230; conditions: literature value ref 25; cited from earlier work
structure (smiles),measurement,setting,value
"CCCN(CCC)C(=O)Cc1c(-c2ccc(OCCF)cc2)nc2c(Cl)cc(Cl)cn12 [CB251, 2-(2-(4-(2-Fluoroethoxy)phenyl)-6,8-dichloroimidazo[1,2-a]pyridin-3-yl)-N,N-dipropylacetamide]",Ki,CBR,> 100000 nM
same,binding to CBR,CBR; result in words,below the detection limit
same,TSPO binding affinity relative to PK 11195,TSPO [1],5 times
same,TSPO binding affinity relative to PBR28,TSPO [1]; PBR28 Ki from ref 25,22 times
same,Ki,TSPO [2],0.27 ± 0.09 nM
COc1ccccc1CN(C(C)=O)c1cnccc1Oc1ccccc1 [PBR28],Ki,TSPO [3],6.1 ± 6.4 nM
"CCC(C)N(C)C(=O)c1cc2ccccc2c(-c2ccccc2Cl)n1 (centres unmarked) [PK 11195, reference compound]",Ki,CBR,> 100000 nM
"CN1C(=O)CN=C(c2ccccc2F)c2cc([N+](=O)[O-])ccc21 [flunitrazepam, reference compound]",Ki,CBR,5.11 ± 0.87 nM

# Source: publication PMC4745082, “A Novel PET Imaging Probe for the Detection and Monitoring of Translocator Protein 18 kDa Expression in Pathological Disorders” (Scientific Reports, 2016)
